Patent publication US20260174739A1 (priority 2022, published 2026)
Like-named read-outs stand apart in the source and are kept apart here.

Key:
[1] = In vivo metabolism (pharmacokinetic) experiment in mice; design: species or system male ICR mice; conditions: mouse
In short: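 Fasted (12 h) male ICR mice received compound in 5% DMSO/5% Solutol HS15/90% saline at 2.5 mg/kg iv or 10 mg/kg po. Plasma and brain sampled 0.083–8 h (n=3 per time point) and analysed by LC-MS/MS. Parameters derived by non-compartmental analysis.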

[2] = molecular target: Sigma2 receptor (Homo sapiens, UniProt Q5BJF2); assay: Sigma receptor affinity assay ([3H]-DTG binding), Sigma2R
Protocol: (§1) Cell membrane: the membrane protein adopted in the experiment was extracted from an HEK293 cell strain stably expressing Sigmal receptor and an HEK293 cell strain stably expressing Sigma2 receptor, which were constructed by WuXi AppTec.
(§2) • 1) Detection buffer: 50 mM Tris-HCl, pH=7.4, stored at 4° C. • 2) Sigma 1R assay plate washing buffer: 50 mM Tris-HCl, pH=7.4, stored at 4° C.; sigma2R assay plate washing buffer: 50 mM Tris-HCl, 100 mM NaCl, pH=7.4, stored at 4° C. • 3) The compounds were diluted to each working concentration: 4-fold serial gradient dilutions for 8 concentrations.
The affinity inhibition constant Ki was calculated using the Cheng Prusoff equation: […]

[3] = system: male C57 mice; assay: Forced swim test; assay type: in vivo; conditions: intraperitoneal injection, test 0.5 h after dosing, motionless time in last 4 min
Protocol: Drug: the compound of the present disclosure was first uniformly mixed with 5% DMSO and 5% Solutol® HS 15. hysiological saline was then added to make up 90% of the final volume. The mixture was prepared at an appropriate concentration immediately before use.
Animal: male C57 mice, about 22 g. The animals were randomly divided into a blank control group and test drug groups, 8 animals per group, and mice in each group were administered either the vehicle or the test compound via intraperitoneal injection.
Experimental steps: the mice were subjected to forced swim test 0.5 h after dosing. The water level in the forced swim device was 45 cm, and the water temperature was 25° C. The mice were placed in an experimental room to adapt to the environment for 1 h before the experiment began. When the experiment began, the mice were placed in the device for 6 min, and the whole process was recorded by a camera. Only the motionless time of the mice in the last 4 min was counted when data were analyzed.

[4] = molecular target: human DAT (Homo sapiens, UniProt Q01959); assay: DAT transporter inhibitory activity test (neurotransmitter transporter uptake assay kit); assay type: cell-based
[5] = molecular target: human SERT (Homo sapiens, UniProt P31645); assay: Inhibitory activity assay against 5-HT transporter (neurotransmitter transporter uptake assay kit); assay type: cell-based; conditions: HEK-293 cells overexpressing human SERT; read-out: 5-HTT (IC50)
Protocol: In HEK-293 cells overexpressing human SERT, the transporter inhibitory effect of the test compound on human SERT was assayed using a Neurotransmitter transporter uptake assay kit (Molecular devices).

[6] = Human liver microsome assay (metabolic stability); assay type: in vitro ADME; conditions: pH 7.4
In short: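 Human liver microsomes 0.2 mg/mL with 1 μM compound, 3.0 mM MgCl2 and 2.0 mM NADPH in 0.1 M phosphate pH 7.4, 37 °C; sampled at 0–60 min. LC-MS/MS peak-area ratio to internal standard; T1/2 and CLint from slope of ln residual versus time.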

[7] = molecular target: Sigma1 receptor (Homo sapiens, UniProt Q99720); assay: Sigma receptor affinity assay ([3H]-DTG binding), Sigma1R
Protocol: as §1, §2
The cell membrane solution and isotope solution were prepared with the pre-cooled detection buffer, with the following configuration information: the membrane concentration was 10 μg/well, and the final concentration of isotopic ligand [3H]-DTG was 5 nM. • 5) After the test compound and the positive control were diluted to the working concentration, 1 μL was added to each well of the assay plate. […] […]. The affinity inhibition constant Ki was calculated using the Cheng Prusoff equation:

[8] = molecular target: human NET (Homo sapiens, UniProt P23975); assay: NET transporter inhibitory activity test (neurotransmitter transporter uptake assay kit); assay type: cell-based
Protocol: Transporter inhibition of human DAT and NET expressed in HEK-293 cells was assessed using a neurotransmitter transporter uptake assay kit. The assay was performed as described in the kit instructions, using centanafadine as a positive control. The specific procedures were as follows:
First day cell plating: HEK 293T cells were digested with trypsin, centrifuged, resuspended with a medium, counted, and seeded into a 6 cm culture dish at a density of 3×10^6 cells/well.
Second day cell transfection: HEK 293T cells were subjected to medium exchange, and then A, B tubes were prepared for NET-pcDNA5/FRT plasmid to be transfected. 200 μL of Opti-MEM was added to tube A, and 10 μL of Lipofectamine™ 3000 was added. The mixture was mixed well. 200 μL of Opti-MEM was added to tube B, and 5 μg of NET-pcDNA5/FRT plasmid was added. The mixture was mixed well, and then 10 μL of P3000™ was added to tube B. The mixture was mixed well (plasmid to transfection reagent ratio 1 μg:2 μL). The diluted solution of tube A was added to the diluted solution of tube B. The mixture was mixed well, and incubated at room temperature for 15 min. Finally, the mixture was gently added to the cells that had been subjected to medium exchange, gently shaken to mix, and then incubated overnight in an incubator at 37° C. with a carbon dioxide concentration of 5%. The cells were used for compound functional activity assays 18-20 h after transfection.
• a) After overnight transfection of NET cells, the cells were digested with trypsin, resuspended with DMEM+10% Dialyzed FBS medium, seeded into a 384-well plate at 20000 cells/well, and incubated overnight. Stably transfected DAT cells were digested with trypsin, resuspended with DMEM+10% Dialyzed FBS medium, seeded into a 384-well plate at 2500 cells/well, and incubated overnight. • b) 1× Assay buffer was prepared according to the kit instruction for later use; the positive compound and the test compound were serially diluted with DMSO, and then diluted to 2× with 1× assay buffer. • c) The medium was removed from the 384-well plate by centrifugation. • d) 16 μL of the compound prepared in step b) was added to corresponding experimental wells, wherein an initial concentration of 2× positive control compound was added to the positive control well, and 0.2% DMSO buffer was added to the negative control well. After centrifuging, the plate was incubated at 37° C. for 30 min. • e) A detection reagent was prepared using 1×HBSS, and 16 μL of the detection reagent was added to each well. After centrifuging, the plate was incubated at 37° C. for 60 min. • f) After incubation, the reading at 510 nm under the excitation of the detection wavelength of 425 nm was measured using a microplate reader. Curve fitting and IC50 calculation were performed using GraphPad Prism software nonlinear regression method.

[9] = molecular target: T1, NMDA receptor (N-methyl-D-aspartate receptor, NR1/2A) (Homo sapiens, UniProt Q05586+Q12879); assay: NMDA receptor antagonistic activity assay (whole cell manual patch clamp, channel currents); assay type: cell-based; conditions: HEK293 cells transiently expressing hNR1/2A; current evoked by 100 μM glutamic acid + 100 μM glycine at -70 mV; read-out: NMDAR antagonistic activity (IC50)
T1 construct: T2A self-cleaving peptide (linker between NR1 and 2A) (C)
Protocol: The effect of the compounds on NMDA receptor (N-methyl-D-aspartate receptor, NR1/2A) channel currents was tested using the electrophysiological whole cell manual patch clamp method.
The HEK293 cell line was cultured in DMEM medium containing 10% fetal bovine serum at 37° C. with 5% carbon dioxide.
Preparation of compound: on the day of testing, the stock solution of the compound of the present disclosure was diluted with DMSO to an intermediate concentration, which was then further diluted with an extracellular solution (containing 100 μM glutamic acid+100 µM glycine) to obtain the final concentration to be tested. […] Electrophysiological recording
Currents evoked by 100 μM glutamic acid (containing 100 μM glycine) were recorded at room temperature from HEK293 cells transiently expressing NMDA receptor channels using the whole-cell patch clamp technique. Glass microelectrodes were formed by pulling a glass electrode blank (BF150-86-10, Sutter) using a puller. The tip resistance after perfusion of electrode internal solution was about 2-5 MΩ. The glass microelectrodes could be connected to a patch clamp amplifier after being inserted into amplifier probes. […] After whole-cell recording was achieved, the cell was clamped at −70 mV. A gravity-driven rapid administration system was used to apply 100 μM glutamic acid (containing 100 μM glycine) to induce the channel current. After the current stabilized, the 100 μM glutamic acid (containing 100 μM glycine) was administered, and changes in current amplitude were observed. The compounds were administered sequentially from low to high concentration, followed by a final administration of 100 μM glutamic acid (containing 100 μM glycine). Each test concentration of the compound was applied for at least 20 s, and at least 2 cells (n≥2) were tested for each concentration. • d. Data processing
Data were analyzed using pClamp, GraphPad Prism 8, and Excel software.
The IC50 of the compound was calculated using the GraphPad Prism 8 software by equation fitting as follows:
[formula] • where X is the Log value of the test concentration of the test sample, Y is the inhibition percentage at the corresponding concentration, and Bottom and Top are the minimum and maximum inhibition percentages, respectively.

[10] = HEK293 membranes stably expressing Sigma2 receptor, [3H]-DTG 5 nM, read-out: Sigma2R (Ki)
[11] = male ICR mice, oral 10 mg/kg vs iv 2.5 mg/kg, read-out: F (%)
[12] = male ICR mice, oral 10 mg/kg, plasma, read-out: AUC0-inf(po)
[13] = male ICR mice, oral 10 mg/kg, plasma, read-out: Cmax (po)
[14] = male ICR mice, oral 10 mg/kg, plasma, read-out: T1/2 (po) (converted)
[15] = human liver microsomes 0.2 mg/mL, 1 μM test drug, NADPH, 37° C., read-out: Half-life (t1/2, min)
[16] = human liver microsomes 0.2 mg/mL, 1 μM test drug, NADPH, 37° C., read-out: Intrinsic clearance (Clint, mL/min/kg)
[17] = DAT stably transfected HEK cells, read-out: DAT (IC50)

Sequence of Sigma2 receptor (Q5BJF2 whole entry, species assumed): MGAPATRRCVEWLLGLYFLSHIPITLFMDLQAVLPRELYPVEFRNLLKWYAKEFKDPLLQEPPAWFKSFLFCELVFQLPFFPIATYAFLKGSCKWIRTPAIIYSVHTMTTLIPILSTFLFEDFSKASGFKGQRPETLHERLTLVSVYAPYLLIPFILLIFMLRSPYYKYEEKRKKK
Sequence of human DAT (Q01959 whole entry): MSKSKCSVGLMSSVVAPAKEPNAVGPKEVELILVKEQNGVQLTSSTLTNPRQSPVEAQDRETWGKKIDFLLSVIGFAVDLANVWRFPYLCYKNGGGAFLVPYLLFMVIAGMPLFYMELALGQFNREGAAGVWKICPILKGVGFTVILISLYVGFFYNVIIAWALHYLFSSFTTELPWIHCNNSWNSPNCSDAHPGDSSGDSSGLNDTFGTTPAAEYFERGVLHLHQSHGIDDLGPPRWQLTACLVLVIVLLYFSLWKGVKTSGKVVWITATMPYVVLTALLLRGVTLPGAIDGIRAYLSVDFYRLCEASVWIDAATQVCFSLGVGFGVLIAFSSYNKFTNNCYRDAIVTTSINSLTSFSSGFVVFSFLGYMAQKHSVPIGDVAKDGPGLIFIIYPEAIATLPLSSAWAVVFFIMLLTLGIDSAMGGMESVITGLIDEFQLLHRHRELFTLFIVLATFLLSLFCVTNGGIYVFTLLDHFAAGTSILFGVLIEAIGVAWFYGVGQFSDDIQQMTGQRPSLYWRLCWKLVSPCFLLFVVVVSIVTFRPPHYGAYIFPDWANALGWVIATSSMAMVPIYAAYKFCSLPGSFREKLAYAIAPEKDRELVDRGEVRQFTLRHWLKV
Sequence of human SERT (P31645 whole entry): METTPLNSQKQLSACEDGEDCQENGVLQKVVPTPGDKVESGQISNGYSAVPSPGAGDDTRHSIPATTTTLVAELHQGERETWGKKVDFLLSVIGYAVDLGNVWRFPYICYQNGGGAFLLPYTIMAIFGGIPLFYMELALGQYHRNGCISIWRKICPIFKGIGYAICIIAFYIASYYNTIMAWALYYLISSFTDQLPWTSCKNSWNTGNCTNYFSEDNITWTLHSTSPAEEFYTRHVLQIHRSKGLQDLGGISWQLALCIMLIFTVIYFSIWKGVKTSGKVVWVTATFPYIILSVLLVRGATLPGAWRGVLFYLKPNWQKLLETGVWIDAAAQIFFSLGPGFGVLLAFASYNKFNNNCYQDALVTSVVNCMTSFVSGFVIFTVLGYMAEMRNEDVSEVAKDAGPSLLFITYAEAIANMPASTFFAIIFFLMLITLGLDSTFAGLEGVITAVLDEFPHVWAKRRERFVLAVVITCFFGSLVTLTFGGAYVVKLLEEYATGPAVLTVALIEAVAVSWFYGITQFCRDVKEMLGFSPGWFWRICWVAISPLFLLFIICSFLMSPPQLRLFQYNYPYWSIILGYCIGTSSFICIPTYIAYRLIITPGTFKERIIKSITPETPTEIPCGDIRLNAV
T1 sequence (Q12879 23-1464, other chains not shown): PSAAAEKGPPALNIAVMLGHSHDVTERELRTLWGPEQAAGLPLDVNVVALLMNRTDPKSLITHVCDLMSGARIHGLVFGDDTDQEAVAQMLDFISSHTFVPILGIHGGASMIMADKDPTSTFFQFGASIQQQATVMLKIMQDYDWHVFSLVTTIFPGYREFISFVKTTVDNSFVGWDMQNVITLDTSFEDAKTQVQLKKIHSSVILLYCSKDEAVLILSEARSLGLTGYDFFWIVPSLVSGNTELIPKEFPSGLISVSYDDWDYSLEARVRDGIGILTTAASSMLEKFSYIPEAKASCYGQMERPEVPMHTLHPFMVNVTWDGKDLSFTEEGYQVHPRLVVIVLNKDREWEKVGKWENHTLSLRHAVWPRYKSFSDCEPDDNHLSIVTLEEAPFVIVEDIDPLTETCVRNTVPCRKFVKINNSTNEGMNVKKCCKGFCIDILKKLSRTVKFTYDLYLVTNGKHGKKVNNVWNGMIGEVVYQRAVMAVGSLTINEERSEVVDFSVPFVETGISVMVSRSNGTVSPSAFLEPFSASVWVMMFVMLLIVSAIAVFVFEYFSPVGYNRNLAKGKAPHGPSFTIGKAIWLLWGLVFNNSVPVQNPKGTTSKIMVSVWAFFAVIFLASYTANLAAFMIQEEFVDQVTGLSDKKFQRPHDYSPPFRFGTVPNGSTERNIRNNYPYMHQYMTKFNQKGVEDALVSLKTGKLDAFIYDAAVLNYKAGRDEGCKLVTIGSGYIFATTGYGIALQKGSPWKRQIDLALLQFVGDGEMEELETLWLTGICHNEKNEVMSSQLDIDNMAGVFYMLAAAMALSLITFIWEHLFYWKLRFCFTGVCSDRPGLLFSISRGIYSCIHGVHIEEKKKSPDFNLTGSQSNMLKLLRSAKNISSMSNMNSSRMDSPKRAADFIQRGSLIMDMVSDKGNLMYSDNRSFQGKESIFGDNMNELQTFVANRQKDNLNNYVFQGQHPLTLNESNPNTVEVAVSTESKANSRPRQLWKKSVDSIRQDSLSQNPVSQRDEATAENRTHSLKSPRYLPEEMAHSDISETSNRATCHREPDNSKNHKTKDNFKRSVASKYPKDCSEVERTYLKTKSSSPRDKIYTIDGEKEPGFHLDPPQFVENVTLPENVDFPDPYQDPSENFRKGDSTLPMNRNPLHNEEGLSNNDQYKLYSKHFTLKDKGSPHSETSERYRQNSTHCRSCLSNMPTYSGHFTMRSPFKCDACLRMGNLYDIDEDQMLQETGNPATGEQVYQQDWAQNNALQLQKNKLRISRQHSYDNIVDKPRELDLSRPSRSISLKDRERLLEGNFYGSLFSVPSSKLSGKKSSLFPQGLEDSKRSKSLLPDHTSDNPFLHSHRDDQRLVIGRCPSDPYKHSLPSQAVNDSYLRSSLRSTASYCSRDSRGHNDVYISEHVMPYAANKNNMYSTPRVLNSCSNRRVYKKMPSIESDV
Sequence of human NET (P23975 whole entry): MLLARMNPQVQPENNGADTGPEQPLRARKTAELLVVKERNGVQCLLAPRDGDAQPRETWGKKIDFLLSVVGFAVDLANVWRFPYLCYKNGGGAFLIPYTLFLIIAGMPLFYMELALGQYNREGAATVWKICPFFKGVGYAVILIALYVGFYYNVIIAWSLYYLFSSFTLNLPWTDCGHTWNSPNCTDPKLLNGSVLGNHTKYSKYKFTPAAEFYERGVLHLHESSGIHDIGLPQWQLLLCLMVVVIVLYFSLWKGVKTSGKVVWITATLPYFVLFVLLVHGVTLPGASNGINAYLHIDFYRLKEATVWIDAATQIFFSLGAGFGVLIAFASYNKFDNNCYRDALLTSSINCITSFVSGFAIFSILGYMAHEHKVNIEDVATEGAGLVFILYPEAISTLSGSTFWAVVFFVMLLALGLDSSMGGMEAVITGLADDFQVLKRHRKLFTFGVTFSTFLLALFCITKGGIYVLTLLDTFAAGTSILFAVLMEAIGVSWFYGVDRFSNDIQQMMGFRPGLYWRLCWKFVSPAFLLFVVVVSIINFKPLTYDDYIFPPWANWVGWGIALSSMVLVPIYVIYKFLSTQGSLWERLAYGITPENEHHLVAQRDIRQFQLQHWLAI
Sequence of Sigma1 receptor (Q99720 whole entry): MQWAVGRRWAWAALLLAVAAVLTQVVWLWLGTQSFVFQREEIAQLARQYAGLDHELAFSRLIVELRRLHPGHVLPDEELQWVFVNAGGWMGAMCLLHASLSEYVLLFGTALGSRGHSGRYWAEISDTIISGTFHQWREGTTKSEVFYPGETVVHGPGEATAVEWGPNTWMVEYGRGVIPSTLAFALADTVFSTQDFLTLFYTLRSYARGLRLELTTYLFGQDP

`CNC1(c2ccccc2)CCc2nc(N)sc2C1` (racemic) [rac-A3, N^6-methyl-6-phenyl-4,5,6,7-tetrahydrobenzothiazole-2,6-diamine] gave an AUC(0-inf) ([1]; male, ICR, po, 10 mg/kg, AUC0-inf(po) (ng*h/mL)) of 1160 ng·h/mL, a Cmax ([1]; male, ICR, po, 10 mg/kg, Cmax (po) (ng/mL)) of 330 ng/mL and a bioavailability ([1]; male, ICR, po, 10 mg/kg, F (%)) of 56%. The half-life ([1]; male, ICR, po, 10 mg/kg, T1/2 (po) (h)) was 2.85 h, the Ki [2, 10] was 0.124 µM and the “Effective dose” value [3] was 3 mg/kg. It also gave an IC50 [4] of 1 µM and an IC50 [5] of 1.2 µM.

In the case of `CNC1(c2ccccc2)CCc2ncsc2C1` (racemic) [rac-A13, N-methyl-6-phenyl-4,5,6,7-tetrahydrobenzothiazol-6-amine], the bioavailability [1, 11] is reported as 78%, the AUC(0-inf) [1, 12] is reported as 845 ng·h/mL and the Cmax [1, 13] is reported as 518 ng/mL. For the same molecule, the half-life [1, 14] was 1.98 h, the Ki [2] was 0.308 µM and the “Effective dose” value [3] was 2.5 mg/kg. For the same molecule, the half-life at 1 μM [6, 15] was 266 min and the CLint scaled at 1 μM [6, 16] was 15.2 mL/min/kg.

In the case of `NC1(c2ccccc2)CCc2ccsc2C1` (racemic) [rac-A19, 6-phenyl-4,5,6,7-tetrahydrobenzothiophen-6-amine], the bioavailability [1, 11] is reported as 48%, the AUC(0-inf) [1, 12] is reported as 797 ng·h/mL and the Cmax [1, 13] is reported as 284 ng/mL. The half-life [1, 14] was 2.84 h, the Ki [2] was 0.523 µM and the half-life at 1 μM [6, 15] was 80 min. For the same molecule, the CLint scaled at 1 μM [6, 16] was 50.6 mL/min/kg.

For `CNC1(c2ccccc2)CCc2sccc2C1` (racemic) [rac-A25, N-methyl-5-phenyl-4,5,6,7-tetrahydrobenzothiophen-5-amine], the Ki [7] was 0.28 µM.

In the case of `Nc1nc2c(s1)CC(c1ccccc1)(N1CCCCC1)CC2` (racemic) [rac-A48, 6-phenyl-6-(piperidin-1-yl)-4,5,6,7-tetrahydrobenzothiazol-2-amine], the “Effective dose” value [3] is reported as 1 mg/kg, the IC50 [4] is reported as 0.76 µM and the IC50 ([8]; NET transiently transfected HEK 293T cells, read-out: NET (IC50)) is reported as 4.6 µM. The CLint scaled at 1 μM ([6]; human, microsomes) was 7.4 mL/min/kg and the half-life at 1 μM ([6]; human, microsomes) was 547 min.

Work on `Nc1nc2c(s1)CC(c1cccc(Cl)c1)(N1CCCCC1)CC2` (racemic) [rac-A49, 6-(3-chlorophenyl)-6-(piperidin-1-yl)-4,5,6,7-tetrahydrobenzothiazol-2-amine] yielded an IC50 [4, 17] of 0.33 µM, an IC50 [5] of 1.2 µM and an IC50 [8] of 2.5 µM. The half-life at 1 μM [6, 15] was 117 min and the CLint scaled at 1 μM [6, 16] was 34.7 mL/min/kg.

In the case of `CN[C@]1(c2ccccc2)CCc2nc(N)sc2C1` [R-A3], the Ki [2, 10] is reported as 1.76 µM and the IC50 [5] is reported as 1.2 µM.

`CN[C@]1(c2ccccc2)CCc2ncsc2C1` [R-A13] gave a Ki [2, 10] of 0.289 µM.

`N[C@]1(c2ccccc2)CCc2ccsc2C1` [R-A19] gave a Ki [2, 10] of 1.27 µM and an IC50 [5] of 1.2 µM.

Work on `c1ccc([C@@]2(N3CCCCC3)CCc3[nH]ncc3C2)cc1` [R-A70] yielded an IC50 [4, 17] of 8.4 µM and an IC50 [9] of 16 µM.

`CN[C@@]1(c2ccccc2)CCc2nc(N)sc2C1` [S-A3] showed a Ki [2, 10] of 0.99 µM and an IC50 [4, 17] of 1.6 µM.

For `c1ccc([C@]2(N3CCCC3)CCc3[nH]ncc3C2)cc1` [S-A12], the IC50 [9] was 0.18 µM.

With `CN[C@@]1(c2ccccc2)CCc2ncsc2C1` [S-A13] the Ki [2, 10] was 0.257 µM and the IC50 [9] was 2.5 µM.

In the case of `N[C@@]1(c2ccccc2)CCc2ccsc2C1` [S-A19], the Ki [2, 10] is reported as 1.12 µM.

Molecule `c1ccc([C@]2(N3CCCCC3)CCc3[nH]ncc3C2)cc1` [S-A70] has an IC50 [9] of 0.84 µM.

Work on “N^4-methyl-4-phenyl-4,5,6,7-tetrahydrobenzothiazole-2,4-diamine [rac-A39]” yielded an IC50 [9] of 12 µM.
